Values joined by “and” are separate entries in the source; they are usually repeats but may differ in a detail not shown here. Equal values may be shown once. Toxic doses and inconclusive results are not listed. No stated cut-off is given here; in the data, active means T/C of 150% or more; inactive means T/C below 125%.
Tested on: L1210 leukemia ip in BDF1 mice, survival T/C
Assay: NCI In Vivo Anticancer Drug Screen. Data for tumor model L1210 Leukemia (intraperitoneal) in B6D2F1 (BDF1) mice
Conditions: endpoint: mean survival time, higher = longer survival
How it was run: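 Survival endpoint. Drug-treated group vs vehicle group, expressed as T divided by C. Tumor passaged by transplantation.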

[1] = dose: 100.0 mg/kg/injection, schedule: Q01DX001 (ip), vehicle: saline
[2] = dose: 200.0 mg/kg/injection, schedule: Q01DX001 (ip), vehicle: saline
[3] = dose: 400.0 mg/kg/injection, schedule: Q01DX001 (ip), vehicle: saline
[4] = dose: 200.0 mg/kg/injection, schedule: Q01DX009 (ip), vehicle: Klucel (hydroxypropylcellulose) (HPC)
[5] = dose: 400.0 mg/kg/injection, schedule: Q01DX009 (ip), vehicle: Klucel (hydroxypropylcellulose) (HPC)
[6] = dose: 100.0 mg/kg/injection, schedule: Q04DX003 (ip), vehicle: Klucel (hydroxypropylcellulose) (HPC)
[7] = dose: 200.0 mg/kg/injection, schedule: Q04DX003 (ip), vehicle: Klucel (hydroxypropylcellulose) (HPC)
[8] = dose: 400.0 mg/kg/injection, schedule: Q04DX003 (ip), vehicle: Klucel (hydroxypropylcellulose) (HPC)

Measured: T/C

C=COCC(C)C (tested in a mixture with another compound)
inactive: dose: 1.56 mg/kg/injection, schedule: Q01DX001 (ip), vehicle: other 94 % of control | dose: 3.12 mg/kg/injection, schedule: Q01DX001 (ip), vehicle: other 91 % of control | dose: 3.12 mg/kg/injection, schedule: Q01DX009 (ip), vehicle: other 109 % of control | dose: 3.12 mg/kg/injection, schedule: Q04DX003 (ip), vehicle: Klucel (hydroxypropylcellulose) (HPC) 97 % of control | dose: 3.13 mg/kg/injection, schedule: Q04DX003 (ip), vehicle: saline 92 % of control | dose: 4.7 mg/kg/injection, schedule: Q01DX009 (ip), vehicle: saline 104 % of control | dose: 6.25 mg/kg/injection, schedule: Q01DX001 (ip), vehicle: other 96 % of control | dose: 6.25 mg/kg/injection, schedule: Q01DX009 (ip), vehicle: Klucel (hydroxypropylcellulose) (HPC) 107 % of control | dose: 6.25 mg/kg/injection, schedule: Q01DX009 (ip), vehicle: other 98 % of control | dose: 6.25 mg/kg/injection, schedule: Q04DX003 (ip), vehicle: Klucel (hydroxypropylcellulose) (HPC) 114 % of control | dose: 6.25 mg/kg/injection, schedule: Q04DX003 (ip), vehicle: saline 94 % of control | dose: 7.09 mg/kg/injection, schedule: Q01DX009 (ip), vehicle: Klucel (hydroxypropylcellulose) (HPC) 107 % of control | dose: 9.4 mg/kg/injection, schedule: Q01DX009 (ip), vehicle: saline 102 % of control | dose: 10.6 mg/kg/injection, schedule: Q01DX009 (ip), vehicle: Klucel (hydroxypropylcellulose) (HPC) 107 % of control | dose: 12.5 mg/kg/injection, schedule: Q01DX009 (ip), vehicle: Klucel (hydroxypropylcellulose) (HPC) 93 % of control | dose: 12.5 mg/kg/injection, schedule: Q04DX003 (ip), vehicle: Klucel (hydroxypropylcellulose) (HPC) 111 % of control | dose: 15.0 mg/kg/injection, schedule: Q01DX001 (ip), vehicle: saline 109 % of control | dose: 25.0 mg/kg/injection, schedule: Q04DX003 (ip), vehicle: Klucel (hydroxypropylcellulose) (HPC) 88 % of control | dose: 30.0 mg/kg/injection, schedule: Q01DX001 (ip), vehicle: saline 112 % of control | dose: 60.0 mg/kg/injection, schedule: Q01DX001 (ip), vehicle: saline 95 % of control | dose: 75.0 mg/kg/injection, schedule: Q01DX001 (ip), vehicle: carboxymethylcellulose (CMC) 95 % of control | dose: 75.0 mg/kg/injection, schedule: Q04DX003 (ip), vehicle: saline 108 % of control and 110 % of control | dose: 100.0 mg/kg/injection, schedule: Q01DX001 (ip), vehicle: other 106 % of control and 94 % of control | dose: 150.0 mg/kg/injection, schedule: Q01DX001 (ip), vehicle: carboxymethylcellulose (CMC) 114 % of control | dose: 150.0 mg/kg/injection, schedule: Q04DX003 (ip), vehicle: saline 98 % of control | dose: 300.0 mg/kg/injection, schedule: Q01DX001 (ip), vehicle: carboxymethylcellulose (CMC) 100 % of control | dose: 400.0 mg/kg/injection, schedule: Q01DX001 (ip), vehicle: Klucel (hydroxypropylcellulose) (HPC) 92 % of control

CC(CN(C)C)CN1c2ccccc2C(C)(C)c2ccccc21 (stereo unspecified)
inactive: dose: 13.8 mg/kg/injection, schedule: Q01DX001 (ip), vehicle: water 101 % of control | dose: 27.5 mg/kg/injection, schedule: Q01DX001 (ip), vehicle: water 104 % of control | dose: 45.0 mg/kg/injection, schedule: Q01DX001 (ip), vehicle: water 98 % of control | dose: 50.0 mg/kg/injection, schedule: Q01DX001 (ip), vehicle: water 91 % of control | dose: 100.0 mg/kg/injection, schedule: Q01DX001 (ip), vehicle: water 91 % of control | dose: 200.0 mg/kg/injection, schedule: Q01DX001 (ip), vehicle: water 91 % of control | dose: 400.0 mg/kg/injection, schedule: Q01DX001 (ip), vehicle: water 97 % of control

O=C(COc1ccc(Br)cc1Br)OCCBr
inactive: [1] 97 % of control | [2] 105 % of control | [3] 100 % of control

C/C(=N\N1CCCCCC1)c1ccccc1
inactive: dose: 100.0 mg/kg/injection, schedule: Q01DX009 (sc), vehicle: olive oil, sesame oil, peanut oil 95 % of control | dose: 100.0 mg/kg/injection, schedule: Q04DX003 (sc), vehicle: olive oil, sesame oil, peanut oil 112 % of control | dose: 200.0 mg/kg/injection, schedule: Q01DX009 (sc), vehicle: olive oil, sesame oil, peanut oil 98 % of control | dose: 200.0 mg/kg/injection, schedule: Q04DX003 (sc), vehicle: olive oil, sesame oil, peanut oil 105 % of control | dose: 400.0 mg/kg/injection, schedule: Q01DX009 (sc), vehicle: olive oil, sesame oil, peanut oil 97 % of control | dose: 400.0 mg/kg/injection, schedule: Q04DX003 (sc), vehicle: olive oil, sesame oil, peanut oil 105 % of control

COc1cc([C@@H]2c3cc4c(cc3[C@H](O)[C@H]3COC(=O)[C@H]23)OCO4)cc(OC)c1OC
inactive: dose: 0.14 mg/kg/injection, schedule: Q01DX Z (ip), vehicle: carboxymethylcellulose (CMC) 95 % of control | dose: 0.27 mg/kg/injection, schedule: Q01DX Z (ip), vehicle: carboxymethylcellulose (CMC) 101 % of control | dose: 0.54 mg/kg/injection, schedule: Q01DX Z (ip), vehicle: carboxymethylcellulose (CMC) 108 % of control | dose: 1.08 mg/kg/injection, schedule: Q01DX Z (ip), vehicle: carboxymethylcellulose (CMC) 105 % of control and 120 % of control | dose: 1.62 mg/kg/injection, schedule: Q01DX Z (ip), vehicle: carboxymethylcellulose (CMC) 110 % of control | dose: 2.16 mg/kg/injection, schedule: Q01DX Z (ip), vehicle: carboxymethylcellulose (CMC) 95 % of control | dose: 15.0 mg/kg/injection, schedule: Q01DX001 (ip), vehicle: carboxymethylcellulose (CMC) 117 % of control | dose: 30.0 mg/kg/injection, schedule: Q01DX001 (ip), vehicle: carboxymethylcellulose (CMC) 111 % of control | dose: 60.0 mg/kg/injection, schedule: Q01DX001 (ip), vehicle: carboxymethylcellulose (CMC) 88 % of control

CCc1cc(S(=O)(=O)O)c(CC)c(CC)c1CC
inactive: dose: 100.0 mg/kg/injection, schedule: Q01DX009 (ip), vehicle: saline with Tween-80 97 % of control

COc1ccc(C)cc1NC(=O)c1cccc(F)c1
inactive: dose: 100.0 mg/kg/injection, schedule: Q01DX009 (ip), vehicle: Klucel (hydroxypropylcellulose) (HPC) 106 % of control | [4] 101 % of control | [5] 97 % of control

C/C(=N/Nc1ccccc1)c1ccccn1
inactive: [6] 98 % of control | [7] 96 % of control | [8] 98 % of control

O=C(N/N=C\c1cc(Cl)ccc1[N+](=O)[O-])c1ccccc1
inactive: [6] 97 % of control | [7] 97 % of control | [8] 103 % of control

[CH3][Ge]([CH3])([CH3])[CH2]CCl
inactive: dose: 100.0 mg/kg/injection, schedule: Q04DX002 (ip), vehicle: saline with Tween-80 98 % of control | dose: 200.0 mg/kg/injection, schedule: Q04DX002 (ip), vehicle: saline with Tween-80 91 % of control | dose: 400.0 mg/kg/injection, schedule: Q04DX002 (ip), vehicle: saline with Tween-80 98 % of control

[Ni+2].[O-]c1ccccc1C=Nc1ccccc1N=Cc1ccccc1[O-]
inactive: dose: 12.5 mg/kg/injection, schedule: Q01DX009 (ip), vehicle: saline with Tween-80 93 % of control | dose: 25.0 mg/kg/injection, schedule: Q01DX009 (ip), vehicle: saline with Tween-80 93 % of control | dose: 50.0 mg/kg/injection, schedule: Q01DX009 (ip), vehicle: saline with Tween-80 93 % of control

O=C(Cl)c1ccc(OC(Cl)(Cl)Cl)cc1
inactive: [6] 109 % of control | [4] 100 % of control | [7] 92 % of control | [5] 95 % of control | [8] 94 % of control

CN(C)c1ccc(C=Nc2ccccc2O)cc1
inactive: [1] 107 % of control | [2] 96 % of control | [3] 97 % of control

From PubChem BioAssay AID248 (DTP/NCI, 2004)
